According to the supplement of paper PMC10307832:

Experiments:
Test in all cases: relative viability (nuclei count vs DMSO), 5 days (fraction); higher = more cells survive
[1] = compound: C=CC(=O)N1CCC[C@@H](n2nc(-c3ccc(Oc4ccccc4)cc3)c3c(N)ncnc32)C1 [Ibrutinib] + N=C(N)NC(=N)NCCc1ccccc1 [Phenformin] (partner 250 µM)
Outline: (§1)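 Nuclei were stained with Hoechst during a one-step fixation (final 0.05% Triton X-100, 1% formaldehyde, 1 ug/ml Hoechst) carried out 5 days after dosing, then counted on 4× images. The cells, lung cancer lines in 1536-well plates, had been dosed by pin tool the day after seeding with one drug alone or a fixed anchor-drug dose plus five library-drug doses (not always all listed) in √10 steps. Relative viability is the nuclei count in treated wells divided by that in vehicle wells, and each value is the median of duplicate plates.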

[2] = compound: C=CC(=O)Nc1cc(-n2c(=O)ccc3cnc4ccc(-c5ccc(NS(C)(=O)=O)cc5)cc4c32)ccc1C [BMX-IN-1] + Cc1nc(NC(=O)N2CCC[C@H]2C(N)=O)sc1-c1ccnc(C(C)(C)C(F)(F)F)c1 [Alpelisib] (partner 2 µM)
Outline: as §1

[3] = compound: C=CC(=O)N1CCC[C@@H](n2nc(-c3ccc(Oc4ccccc4)cc3)c3c(N)ncnc32)C1 [Ibrutinib] + Nc1ncn([C@H]2C[C@H](O)[C@@H](CO)O2)c(=O)n1 [Decitabine] (partner 2 µM)
Outline: as §1

[4] = compound: C=CCc1cccc(/C=N/NC(=O)CN2CCN(Cc3ccccc3)CC2)c1O [PAC-1] + C[C@]1(O)C[C@@H](c2nc(-c3ccc4ccc(-c5ccccc5)nc4c3)c3c(N)nccn32)C1 [Linsitinib] (partner 1 µM)
Outline: as §1

SK-MES-1 was tested. Which relative viability ([1]; first compound 0.005 µM) did it give?
The relative viability was 0.733.

What about the relative viability ([1]; first compound 0.01581 µM) of the same cell line?
Its relative viability is 0.629.

And the relative viability ([1]; first compound 0.05 µM)?
The relative viability was 0.638.

What about the relative viability ([1]; first compound 0.1581 µM) of the same cell line?
The relative viability was 0.704.

And the relative viability ([1]; first compound 0.5 µM)?
The relative viability was 0.501.

And the relative viability ([2]; first compound 0.02 µM)?
Its relative viability is 1.09.

What about the relative viability ([2]; first compound 0.2 µM) of the same cell line?
Its relative viability is 0.947.

And the relative viability ([2]; first compound 0.6325 µM)?
Its relative viability is 0.911.

What about the relative viability ([2]; first compound 2 µM) of the same cell line?
The relative viability was 0.88.

And the relative viability ([3]; first compound 0.005 µM)?
The relative viability was 0.39.

And the relative viability ([3]; first compound 0.01581 µM)?
The relative viability was 0.359.

And the relative viability ([3]; first compound 0.05 µM)?
The relative viability was 0.335.

What about the relative viability ([3]; first compound 0.1581 µM) of the same cell line?
The relative viability was 0.364.

And the relative viability ([3]; first compound 0.5 µM)?
The relative viability was 0.359.

What about the relative viability ([4]; first compound 0.02 µM) of the same cell line?
The relative viability was 1.04.

What about the relative viability ([4]; first compound 0.06325 µM) of the same cell line?
Its relative viability is 1.03.

What about the relative viability ([4]; first compound 0.2 µM) of the same cell line?
Its relative viability is 1.04.

And the relative viability ([4]; first compound 2 µM)?
The relative viability was 1.03.
